According to patent US10385103B2, “Cell-permeable (ICP)-SOCS3 recombinant protein and uses thereof” (CELLIVERY THERAPEUTICS, INC., priority 2014, dated 2019):

System: RAW 264.7 cells
Assay: Quantitative cell-permeability of FITC-labeled aMTD- or rPeptide-fused CRA recombinant proteins (flow cytometry)
Format: cell-based
Details: for Relative Ratio to aMTD AVE: cell-permeability of rPeptide-fused CRA recombinant protein relative to average of 240 aMTDs
In short: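 Uptake of fluorescently labeled, peptide-fused cargo proteins was quantified by flow cytometry (Guava, Millipore) and analyzed in FlowJo software. RAW 264.7 cells received 10 μM FITC-labeled protein for 1 hour at 37° C., were rinsed three times with cold PBS, and were trypsinized with 0.25% tripsin/EDTA for 20 minutes at 37° C. to remove bound protein before measurement. Permeability was expressed relative to reference proteins.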

[1] = cell-permeability of aMTD-fused CRA recombinant protein relative to negative control (A: rP38)
[2] = cell-permeability of aMTD-fused CRA recombinant protein relative to reference CPP (B: MTM12)
[3] = cell-permeability of aMTD-fused CRA recombinant protein relative to reference CPP (C: MTD85)
[4] = cell-permeability relative to negative control rP38 (A type), aMTD-fused CRA recombinant protein, 10 μM FITC-labeled, 1 hour, 37° C., RAW 264.7 cells
[5] = cell-permeability relative to reference CPP MTD85 (C type), aMTD-fused CRA recombinant protein, 10 μM FITC-labeled, 1 hour, 37° C., RAW 264.7 cells
[6] = cell-permeability relative to reference CPP MTM12 (B type), aMTD-fused CRA recombinant protein, 10 μM FITC-labeled, 1 hour, 37° C., RAW 264.7 cells
[7] = relative cell-permeability of aMTD vs reference A (not defined)
[8] = relative cell-permeability of aMTD vs reference CPP B: MTM12
[9] = relative cell-permeability of aMTD vs reference CPP C: MTD85
[10] = 10 μM FITC-labeled, 1 hour, 37° C., RAW 264.7 cells

852 (VLAVAAPAVLLP; Amino acid Sequence of aMTD852) [compound 852]
Relative Ratio (Fold) A [1]: 84.6 Fold | Relative Ratio (Fold) B [2]: 56.6 Fold | Relative Ratio (Fold) C [3]: 28.6 Fold

863 (AAVVLLPIIAAP; Amino acid Sequence of aMTD863) [compound 863]
Relative Ratio (Fold) A [1]: 13.8 Fold | Relative Ratio (Fold) B [2]: 9.3 Fold | Relative Ratio (Fold) C [3]: 4.7 Fold

865 (AVLVIAVPAIAP; Amino acid Sequence of aMTD865) [compound 865]
Relative Ratio (Fold) A [1]: 11.3 Fold | Relative Ratio (Fold) B [2]: 7.5 Fold | Relative Ratio (Fold) C [3]: 3.8 Fold

867 (ALLVVIAPLAAP; Amino acid Sequence of aMTD867) [compound 867]
Relative Ratio (Fold) A [1]: 13.2 Fold | Relative Ratio (Fold) B [2]: 8.8 Fold | Relative Ratio (Fold) C [3]: 4.4 Fold

868 (VLVAAILPAAIP; Amino acid Sequence of aMTD868) [compound 868]
Relative Ratio (Fold) A [1]: 14.9 Fold | Relative Ratio (Fold) B [2]: 10.0 Fold | Relative Ratio (Fold) C [3]: 5.0 Fold

870 (VLVAAVLPIAAP; Amino acid Sequence of aMTD870) [compound 870]
Relative Ratio (Fold) A [1]: 16.6 Fold | Relative Ratio (Fold) B [2]: 11.1 Fold | Relative Ratio (Fold) C [3]: 5.6 Fold

872 (VLAAAVLPLVVP; Amino acid Sequence of aMTD872) [compound 872]
Relative Ratio (Fold) A [4]: 7.3 Fold | Relative Ratio (Fold) C [5]: 2.5 Fold | Relative Ratio (Fold) B [6]: 4.9 Fold

875 (AIAIVVPAVAVP; Amino acid Sequence of aMTD875) [compound 875]
Relative Ratio (Fold) A [1]: 13.8 Fold | Relative Ratio (Fold) B [2]: 9.2 Fold | Relative Ratio (Fold) C [3]: 4.7 Fold

878 (IVALVAPAAVVP; Amino acid Sequence of aMTD878) [compound 878]
Relative Ratio (Fold) A [1]: 10.3 Fold | Relative Ratio (Fold) B [2]: 6.9 Fold | Relative Ratio (Fold) C [3]: 3.5 Fold

881 (AALIVVPAVAVP; Amino acid Sequence of aMTD881) [compound 881]
Relative Ratio (Fold) A [1]: 12.7 Fold | Relative Ratio (Fold) B [2]: 8.5 Fold | Relative Ratio (Fold) C [3]: 4.3 Fold

882 (AIALVVPAVAVP; Amino acid Sequence of aMTD882) [compound 882]
Relative Ratio (Fold) A [1]: 35.0 Fold | Relative Ratio (Fold) B [2]: 23.4 Fold | Relative Ratio (Fold) C [3]: 11.8 Fold

883 (LAIVPAAIAALP; Amino acid Sequence of aMTD883) [compound 883]
Relative Ratio (Fold) A [4]: 3.0 Fold | Relative Ratio (Fold) C [5]: 1.0 Fold | Relative Ratio (Fold) B [6]: 2.0 Fold

885 (LVAIAPAVAVLP; Amino acid Sequence of aMTD885) [compound 885]
Relative Ratio (Fold) A [1]: 28.3 Fold | Relative Ratio (Fold) B [2]: 19.0 Fold | Relative Ratio (Fold) C [3]: 9.6 Fold

887 (VLAVAPAVAVLP; Amino acid Sequence of aMTD887) [compound 887]
Relative Ratio (Fold) A [1]: 7.7 Fold | Relative Ratio (Fold) B [2]: 5.1 Fold | Relative Ratio (Fold) C [3]: 2.6 Fold

888 (ILAVVAIPAAAP; Amino acid Sequence of aMTD888) [compound 888]
Relative Ratio (Fold) A [1]: 71.0 Fold | Relative Ratio (Fold) B [2]: 47.5 Fold | Relative Ratio (Fold) C [3]: 24.0 Fold

889 (ILVAAAPIAALP; Amino acid Sequence of aMTD889) [compound 889]
Relative Ratio (Fold) A [1]: 30.3 Fold | Relative Ratio (Fold) B [2]: 20.3 Fold | Relative Ratio (Fold) C [3]: 10.3 Fold

891 (ILAVAAIPAALP; Amino acid Sequence of aMTD891) [compound 891]
Relative Ratio (Fold) A [1]: 44.7 Fold | Relative Ratio (Fold) B [2]: 29.9 Fold | Relative Ratio (Fold) C [3]: 15.1 Fold

893 (VIAIPAILAAAP; Amino acid Sequence of aMTD893) [compound 893]
Relative Ratio (Fold) A [4]: 7.0 Fold | Relative Ratio (Fold) C [5]: 2.4 Fold | Relative Ratio (Fold) B [6]: 4.7 Fold

895 (AIIIVVPAIAAP; Amino acid Sequence of aMTD895) [compound 895]
Relative Ratio (Fold) A [1]: 60.8 Fold | Relative Ratio (Fold) B [2]: 40.7 Fold | Relative Ratio (Fold) C [3]: 20.6 Fold

896 (AILIVVAPIAAP; Amino acid Sequence of aMTD896) [compound 896]
Relative Ratio (Fold) A [1]: 57.5 Fold | Relative Ratio (Fold) B [2]: 38.5 Fold | Relative Ratio (Fold) C [3]: 19.4 Fold

897 (AVIVPVAIIAAP; Amino acid Sequence of aMTD897) [compound 897]
Relative Ratio (Fold) A [1]: 11.2 Fold | Relative Ratio (Fold) B [2]: 7.5 Fold | Relative Ratio (Fold) C [3]: 3.8 Fold | Relative Ratio (Fold) A [4]: 11.2 Fold | Relative Ratio (Fold) C [5]: 3.8 Fold | Relative Ratio (Fold) B [6]: 7.5 Fold

899 (AVVIALPAVVAP; Amino acid Sequence of aMTD899) [compound 899]
Relative Ratio (Fold) A [1]: 164.2 Fold | Relative Ratio (Fold) B [2]: 109.9 Fold | Relative Ratio (Fold) C [3]: 55.5 Fold | Relative Ratio (Fold) A [7]: 164.2 Fold | Relative Ratio (Fold) B [8]: 109.9 Fold | Relative Ratio (Fold) C [9]: 55.5 Fold

900 (ALVAVIAPVVAP; Amino acid Sequence of aMTD900) [compound 900]
Relative Ratio (Fold) A [1]: 34.3 Fold | Relative Ratio (Fold) B [2]: 22.9 Fold | Relative Ratio (Fold) C [3]: 11.6 Fold

901 (ALVAVLPAVAVP; Amino acid Sequence of aMTD901) [compound 901]
Relative Ratio (Fold) A [1]: 7.7 Fold | Relative Ratio (Fold) B [2]: 5.1 Fold | Relative Ratio (Fold) C [3]: 2.6 Fold

902 (ALVAPLLAVAVP; Amino acid Sequence of aMTD902) [compound 902]
Relative Ratio (Fold) A [1]: 7.6 Fold | Relative Ratio (Fold) B [2]: 5.1 Fold | Relative Ratio (Fold) C [3]: 2.6 Fold

904 (AVLAVVAPVVAP; Amino acid Sequence of aMTD904) [compound 904]
Relative Ratio (Fold) A [1]: 106.7 Fold | Relative Ratio (Fold) B [2]: 70.8 Fold | Relative Ratio (Fold) C [3]: 35.8 Fold | Relative Ratio (Fold) A [7]: 105.7 Fold

905 (AVIAVAPLVVAP; Amino acid Sequence of aMTD905) [compound 905]
Relative Ratio (Fold) A [1]: 44.0 Fold | Relative Ratio (Fold) B [2]: 29.5 Fold | Relative Ratio (Fold) C [3]: 14.9 Fold

906 (AVIALAPVVVAP; Amino acid Sequence of aMTD906) [compound 906]
Relative Ratio (Fold) A [4]: 6.8 Fold | Relative Ratio (Fold) C [5]: 2.3 Fold | Relative Ratio (Fold) B [6]: 4.6 Fold

910 (VAALLPAVVVAP; Amino acid Sequence of aMTD910) [compound 910]
Relative Ratio (Fold) A [1]: 149.5 Fold | Relative Ratio (Fold) B [2]: 99.4 Fold | Relative Ratio (Fold) C [3]: 50.2 Fold

911 (VALALPAVVVAP; Amino acid Sequence of aMTD911) [compound 911]
Relative Ratio (Fold) A [1]: 84.8 Fold | Relative Ratio (Fold) B [2]: 56.8 Fold | Relative Ratio (Fold) C [3]: 28.7 Fold | Relative Ratio (Fold) A [7]: 84.8 Fold | Relative Ratio (Fold) B [8]: 56.8 Fold | Relative Ratio (Fold) C [9]: 28.7 Fold

921 (IWWFVVLPLVVP; Amino acid Sequence of rPeptide ID 921) [compound 921]
Relative Ratio to aMTD AVE [10]: 0.14 | Relative Ratio (Fold) A (relative cell-permeability of rPeptide vs reference A (not defined)): 2.8 Fold | Relative Ratio (Fold) B (relative cell-permeability of rPeptide vs reference CPP B: MTM12): 1.9 Fold | Relative Ratio (Fold) C (relative cell-permeability of rPeptide vs reference CPP C: MTD85): 0.9 Fold

934 (LILAPAAVVAAA; Amino acid Sequence of rPeptide ID 934) [compound 934]
Relative Ratio to aMTD AVE [10]: 0.28

938 (VPVLLPVVVPVP; Amino acid Sequence of rPeptide ID 938) [compound 938]
Relative Ratio to aMTD AVE [10]: 0.28

964 (ALLVIAPAIAVP; Amino acid Sequence of aMTD864) [compound 964]
Relative Ratio (Fold) A [1]: 8.2 Fold | Relative Ratio (Fold) B [2]: 4.8 Fold | Relative Ratio (Fold) C [3]: 2.8 Fold
